Measurements reported in patent publication US20160106106A1, “DRUG-RESISTANT MICROBE AND VARIANT MICROBE DISINFECTANT CONTAINING CHLOROUS ACID AQUEOUS SOLUTION” (HONBU SANKEI CO., LTD., priority 2013, published 2016).
Read-outs that look alike come from different tables or passages of the source.

Assays:
[1] = system: contaminating microbes in urine (MDRP); test: Growth suppressing effect against contaminating microbes in urine (MDRP); type: cell-based, Pseudomonas aeruginosa; settings: 10 ppm, 50 ppm, 100 ppm, FIGS. 5 and 6
Description: (§1) The testing method was in accordance with the above-described Examples. The samples prepared as stated above were used.
(§2) Tests were conducted twice using similar samples.

MRSA = test: Growth suppressing effect against contaminating microbes in urine (MRSA); type: cell-based, Staphylococcus aureus; settings: 10 ppm, 50 ppm, 100 ppm, FIG. 6
Description: as §1, §2

[2] = system: Escherichia coli O157 sakai strain (1996, RIMD0509952) on chicken meat (breast meat)
[3] = system: Campylobacter jejuni JCM2013 on chicken meat (breast meat)
Description: 1) Enterohemorrhagic Escherichia coli O157: Escherichia coli O157 sakai strain (1996, RIMD0509952) 2) Campylobacter: Campylobacter jejuni JCM2013
2) Campylobacter: Campylobacter jejuni JCM2013 (selected medium: CCDA plate medium)
The selected medium was streaked. A single colony of tested microbes cultured for 48 hours at 37° C. in microaerophilic conditions was extracted with a platinum loop. The colony was then inoculated in a 50 mL×3 BHI medium, shaken and cultured under aerobic conditions for 48 hours at 37° C. (shake rate: 100 rpm).
Chicken meat (breast meat): About 2 kg of domestic (location unknown) chicken breast meat that was purchased the day before the tests was used.
Each cultured microbial solution was centrifuged (rate of centrifugation: 6000 rpm). The liquid medium of the supernatant was disposed. Then, the microbial solution prepared by diluting with sterilized saline to approximately 10^7 was put into a manually operated spray in the same amount to make a 10^6 microbe suspension.

[4] = system: Microbes of the genus Paenibacillus; test: Microbe disinfecting effect on microbes isolated from isolator, Paenibacillus; type: cell-based; settings: average ± S.D.
Description: (§3) In the present Example, since the isolator for raising microbe-free mice was contaminated by environmental microbes, microbes were isolated from the isolator, and microbe disinfecting effects were examined in vitro using various antiseptics of interest.
(§4) Three species of microbes were isolated to analyze 16SrDNA.
(§5) (1) A single colony of each isolated microbe that was cultured in a BHI agar medium was cultured for two days at 37° C. in 5 mL of BHI medium. (2) After collecting microbes by centrifuging (3000×g, 4° C., 10 min) the culturedmicrobial solution, the microbes were washed twice with sterile saline (0.85%) to prepare a microbial solution of about 10^7 CFU/ml (Inoculam value). (3) Each agent of interest was prepared by diluting with sterile ion exchange water to have a predetermined concentration. 9 mL of each diluent was dispensed into a sterilized test tube. (4) 1 mL of the microbial solution prepared in (2) was added to the agent-containing test tube. A vortex mixer was used to mix well. (5) 1 mL was sampled from the test tube of (4) at a predetermined time. The sampling was added to and mixed with 0.05 mol/L sodium thiosulfate solution for neutralization. (6) 1 mL of the solution after the neutralization treatment was spread on a petri dish. The solution was pour-plate cultured for 24 hours at 37° C. in a BHI agar medium. The number of surviving microbes that had grown was measured.
(§6) The operation was performed three times, and microbial disinfection was evaluated by average value±standard deviation (S. D.)

[5] = system: Microbes of the genus Bacillus; test: Microbe disinfecting effect on microbes isolated from isolator, Bacillus; type: cell-based; settings: average ± S.D.
Description: as §3, §4
as §5, with “(2) After collecting microbes by centrifuging (3000×g, 4° C., 10 min) the culturedmicrobial solution, the microbes were washed twice with sterile saline (0.85%) to prepare a microbial solution of about 10^7 CFU/ml (Inoculam value).” left out
as §6

[6] = Sampling 3: after soaking 30 minutes at 400 ppm, raw material:liquid = 1:10
[7] = Sampling 4: after soaking 30 minutes at 400 ppm, washing and draining
[8] = Sampling 5: after soaking 30 minutes at 400 ppm, washing, storage for 24 hours at 4° C.

For OCl [Sodium hypochlorite], which growth suppressing effect [1] is on record?
Its growth suppressing effect is “growth suppressing effect”.

What about the growth suppressing effect (MRSA) of the same compound?
The growth suppressing effect was “growth suppressing effect”.

And the “number of E. coli O-157 on the chicken meat” value [2, 6]?
The value was 3.3 × 10^4 cfu/mL.

What about the “number of E. coli O-157 on the chicken meat” value [2, 7] of the same compound?
The value was 1.6 × 10^4 cfu/mL.

And the “number of E. coli O-157 on the chicken meat” value [2, 8]?
The value was 5.0 × 10^4 cfu/mL.

What about the “number of Campylobacter on the chicken meat” value (shortened to “number of Campylobacter”) [3, 6] of the same compound?
The value was 2.5 × 10^5 cfu/mL.

And the “number of Campylobacter” value [3, 7]?
The value was 3.2 × 10^5 cfu/mL.

What about the “number of Campylobacter” value [3, 8] of the same compound?
The value was 4.8 × 10^5 cfu/mL.

What about the “number of surviving microbes” value ([4]; 200 ppm, 5 min) of the same compound?
The value was 4.80 ± 0.25 log10 cfu/mL.

And the “number of surviving microbes” value ([4]; 200 ppm, 10 min)?
Its value is 4.86 ± 0.41 log10 cfu/mL.

And the “number of surviving microbes” value ([4]; 200 ppm, 30 min)?
The value was 3.75 ± 0.53 log10 cfu/mL.

And the “number of surviving microbes” value ([4]; 500 ppm, 5 min)?
Its value is 4.07 ± 0.12 log10 cfu/mL.

What about the “number of surviving microbes” value ([4]; 500 ppm, 10 min) of the same compound?
The value was 3.61 ± 0.09 log10 cfu/mL.

And the “number of surviving microbes” value ([4]; 500 ppm, 30 min)?
The value was 3.61 ± 0.26 log10 cfu/mL.

What about the “number of surviving microbes” value ([4]; 1000 ppm, 5 min) of the same compound?
Its value is under 2.00 log10 cfu/mL.

What about the “number of surviving microbes” value ([4]; 1000 ppm, 10 min) of the same compound?
The value was under 2.00 log10 cfu/mL.

And the “number of surviving microbes” value ([4]; 1000 ppm, 30 min)?
The value was under 2.00 log10 cfu/mL.

What about the “number of surviving microbes” value ([5]; 200 ppm, 5 min) of the same compound?
Its value is 5.60 ± 0.22 log10 cfu/mL.

And the “number of surviving microbes” value ([5]; 200 ppm, 10 min)?
The value was 5.53 ± 0.62 log10 cfu/mL.

And the “number of surviving microbes” value ([5]; 200 ppm, 30 min)?
Its value is 5.34 ± 0.34 log10 cfu/mL.

And the “number of surviving microbes” value ([5]; 500 ppm, 5 min)?
Its value is 5.55 ± 0.45 log10 cfu/mL.

And the “number of surviving microbes” value ([5]; 500 ppm, 10 min)?
Its value is 5.49 ± 0.28 log10 cfu/mL.

And the “number of surviving microbes” value ([5]; 500 ppm, 30 min)?
Its value is 4.85 ± 0.32 log10 cfu/mL.

And the “number of surviving microbes” value ([5]; 1000 ppm, 5 min)?
Its value is 3.55 ± 0.46 log10 cfu/mL.

With Sodium chlorite as the compound, how does the growth suppressing effect [1] read?
Its growth suppressing effect is “growth suppressing effect”.

And the growth suppressing effect (MRSA)?
The growth suppressing effect was “growth suppressing effect”.
